Here are results for 29 compounds from US20230096028A1, “BICYCLIC HETEROCYCLYL COMPOUNDS AND USES THEREOF” (Revolution Medicines, Inc., priority 2019, published 2023).

Structures are written as SMILES. Where two headings read alike, the source gives them in different places.

One may read the IC50 as the midpoint of a concentration-inhibition curve. By Kd is commonly meant the concentration at which binding is half-saturated.

The subject of experiment [1] is PC-9 cells (EGFR Ex19Del). As to the kind of experiment: Potency Assay: pERK (SOS1 pERK IC50 Assay, AlphaLISA SureFire Ultra p-ERK1/2). In kind it is cell-based. Conditions: Homo sapiens, read-out: SOS1 pERK IC50. In short, it runs like this: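 PC-9 (EGFR Ex19Del) cells plated overnight, then treated 1 h at 37° C. with 10-point 3-fold dilutions (top 10 μM final) in duplicate. Lysate pERK1/2 measured by AlphaLISA SureFire Ultra; IC50 from 4-parameter sigmoidal fit.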

The target in experiment [2] is T1, SOS1 catalytic domain (residues 564-1049) (Homo sapiens, UniProt Q07889).
T1 sequence (Q07889 564-1049): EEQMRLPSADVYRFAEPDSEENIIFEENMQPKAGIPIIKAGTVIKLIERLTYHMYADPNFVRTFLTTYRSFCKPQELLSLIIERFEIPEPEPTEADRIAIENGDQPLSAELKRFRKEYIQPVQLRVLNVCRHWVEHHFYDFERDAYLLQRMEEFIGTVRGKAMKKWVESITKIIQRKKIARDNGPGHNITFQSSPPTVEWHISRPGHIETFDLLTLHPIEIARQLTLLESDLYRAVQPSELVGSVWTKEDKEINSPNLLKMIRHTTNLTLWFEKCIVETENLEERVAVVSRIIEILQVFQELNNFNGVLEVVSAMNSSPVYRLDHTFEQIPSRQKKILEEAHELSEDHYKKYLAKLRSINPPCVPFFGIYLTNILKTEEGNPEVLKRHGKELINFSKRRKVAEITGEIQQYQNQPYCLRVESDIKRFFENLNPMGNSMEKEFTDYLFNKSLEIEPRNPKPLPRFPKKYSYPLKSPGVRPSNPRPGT
As to the kind of experiment: Potency Assay: binding affinity to SOS1 using Surface Plasmon Resonance (SPR). More on the design: SOS1 catalytic domain (residues 564-1049) immobilized on a sensor chip. The conditions noted are these: immobilized SOS1 catalytic domain (residues 564-1049), read-out: SOS1 SPR Equilibrium Kd. In short, it runs like this:
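Avi-tagged SOS1 catalytic domain captured on streptavidin chip (~6000 RU) in 0.01 M HEPES, 0.15 M NaCl, 0.05% P20. Compound dilution series flowed at 50 μL/min for association, then buffer for dissociation, with double reference subtraction. Kd derived from end-of-association binding response plotted against concentration.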

Experiment [3] concerns the target T1, SOS1 catalytic domain (residues 564-1049). In words: Mode of Action Assay: inhibition of SOS1 nucleotide exchange activity (SOS1 TR-FRET IC50 Assay).
[4] abbreviates: PC-9 cells (EGFR Ex19Del), 1 hour incubation, AlphaLISA p-ERK1/2.

`C[C@@H](Nc1nc(Cl)nc2c1CN(C(=O)c1ccc(N3CCOCC3)cn1)CC2)c1cc(N)cc(C(F)(F)F)c1` [Example 254]: the IC50 in experiment [1] (setting [4]) and in experiment [3] was more than 1000 nM in each case. Moreover, in experiment [2], the Kd was more than 400 nM.

On to `C[C@@H](Nc1nc(Cl)nc2c1CN(C(=O)C1CCN(C)C1)C2)c1cccc(C(F)F)c1F` (stereo partly drawn) [Example 319], for which the IC50 in experiment [1] (setting [4]) and in experiment [3] was less than 1000 nM in each case. For the same compound, the dissociation constant (Kd) in experiment [2] was less than 400 nM.

`COc1cc(C(=O)N2CCc3nc(Cl)nc(N[C@H](C)c4cc(N)cc(C(F)(F)F)c4)c3C2)nc(OC)n1` [Example 229]: the IC50 in experiment [1] (setting [4]) and in experiment [3] was more than 1000 nM throughout. In addition, the dissociation constant Kd in experiment [2] is more than 400 nM.

Regarding `Cc1nc2c(c(N[C@H](C)c3cc(N)cc(C(F)(F)F)c3)n1)CN(S(=O)(=O)C1CCOCC1)C2` [Example 47, N-[(1R)-1-[3-amino-5-(trifluoromethyl)phenyl]ethyl]-2-methyl-6-tetrahydropyran-4-ylsulfonyl-5,7-dihydropyrrolo[3,4-d]pyrimidin-4-amine], the IC50 in experiment [1] (setting [4]) and in experiment [3] was less than 1000 nM each time. Further, the Kd in experiment [2] is less than 400 nM.

With `C[C@@H](Nc1nc(Cl)nc2c1CN(C(=O)[C@@H]1C[C@H]1C#N)CC2)c1cc(N)cc(C(F)(F)F)c1` [Example 223], the IC50 in experiment [1] (setting [4]) and in experiment [3] was less than 1000 nM throughout. Moreover, the Kd in experiment [2] is less than 400 nM.

Take `C[C@@H](Nc1nc(Cl)nc2c1CN(C(=O)C1C3CNCC31)C2)c1cc(N)cc(C(F)(F)F)c1` (stereo partly drawn) [Example 266]: the IC50 in experiment [1] (setting [4]) is more than 1000 nM; in experiment [3], less than 1000 nM. Also, the Kd in experiment [2] was less than 400 nM.

For `C[C@@H](Nc1nc(Br)nc2c1CN(C(=O)N1CCOCC1)C2)c1cc(N)cc(C(F)(F)F)c1` [Example 131, N-[(1R)-1-[3-amino-5-(trifluoro-methyl)phenyl]ethyl]-2-bromo-6-(morpholine-4-carbonyl)-5H,6H,7H-pyrrolo[3,4-d]pyrimidin-4-amine], the IC50 in experiment [1] (setting [4]) and in experiment [3] was less than 1000 nM throughout. Besides, the Kd in experiment [2] was less than 400 nM.

Take `C[C@@H](Nc1ncnc2c1CN(C(=O)N1CCOCC1)C2)c1cccc(C(F)F)c1F` [Example 389]: the IC50 in experiment [1] (setting [4]) was more than 1000 nM; in experiment [3], less than 1000 nM. Also, the equilibrium dissociation constant (Kd) in experiment [2] was less than 400 nM.

Consider `CC(=O)N1Cc2nc(C)nc(N[C@H](C)c3cc(N)cc(C(F)(F)F)c3)c2C1` [Example 120, 1-(4-{[(1R)-1-[3-amino-5-(trifluoromethyl)phenyl]ethyl]amino}-2-methyl-5H,6H,7H-pyrrolo[3,4-d]pyrimidin-6-yl)ethan-1-one], for which the IC50 in experiment [1] (setting [4]) and in experiment [3] was more than 1000 nM each time. In addition, in experiment [2], the Kd is more than 400 nM.

For the compound `C[C@@H](Nc1nc(Cl)nc2c1CN(C(=O)N1CCOCC1)C2)c1cccc(C(F)(F)F)c1` [Example 137, 2-chloro-6-(morpholine-4-carbonyl)-N-[(1R)-1-[3-(trifluoromethyl)phenyl]ethyl]-5H,6H,7H-pyrrolo[3,4-d]pyrimidin-4-amine], the half-maximal inhibitory concentration (IC50) in experiment [1] (setting [4]) and in experiment [3] was less than 1000 nM each time. The Kd in experiment [2] is less than 400 nM.

In the case of `C[C@@H](Nc1nc(Cl)nc2c1CN(C(=O)C1CCNCC1F)C2)c1cccc(C(F)F)c1F` (stereo partly drawn) [Example 305], the concentration for half-maximal inhibition (IC50) in experiment [1] (setting [4]) was more than 1000 nM; in experiment [3] it was less than 1000 nM. In experiment [2], the Kd was less than 400 nM.

On to `C[C@@H](Nc1nc(Cl)nc2c1CN(C(=O)c1ccc(OC(F)F)cn1)C2)c1cc(N)cc(C(F)(F)F)c1` [Example 61], for which the IC50 in experiment [1] (setting [4]) is less than 1000 nM; in experiment [3] it was more than 1000 nM. The Kd in experiment [2] was less than 400 nM.

For the compound `C[C@@H](Nc1nc(Cl)nc2c1CN(C(=O)N1CCC13CNC3)C2)c1cccc(C(F)F)c1F` [Example 392], the IC50 in experiment [1] (setting [4]) is more than 1000 nM; in experiment [3] it was less than 1000 nM. In addition, in experiment [2], the Kd was less than 400 nM.

As for `C[C@@H](Nc1nc(Cl)nc2c1CN(C(=O)N1CC3CC1CN3C1COC1)C2)c1cccc(C(F)F)c1F` (stereo partly drawn) [Example 421], the IC50 in experiment [1] (setting [4]) and in experiment [3] was less than 1000 nM each time. In addition, the Kd in experiment [2] is less than 400 nM.

Take `C[C@@H](Nc1nc(Cl)nc2c1CN(C(=O)[C@@H]1COCCN1C)C2)c1cccc(C(F)F)c1F` [Example 321]: the IC50 in experiment [1] (setting [4]) and in experiment [3] was less than 1000 nM throughout. Further, the Kd in experiment [2] was less than 400 nM.

For `C[C@@H](Nc1nc(Cl)nc2c1CN(S(=O)(=O)CCO)CC2)c1cc(N)cc(C(F)(F)F)c1` [Example 457], the IC50 in experiment [1] (setting [4]) and in experiment [3] was less than 1000 nM throughout. In addition, in experiment [2], the Kd was less than 400 nM.

As to `C[C@@H](Nc1nc(Cl)nc2c1CN(C(=O)C1(C)COC1)C2)c1cc(N)cc(C(F)(F)F)c1` [Example 261], the IC50 in experiment [1] (setting [4]) and in experiment [3] was less than 1000 nM throughout. Also, the Kd in experiment [2] was less than 400 nM.

Consider `C[C@@H](Nc1nc(Cl)nc2c1CN(C(=O)c1ccc(N3CCOCC3)cn1)C2)c1cc(N)cc(C(F)(F)F)c1` [Example 84], for which the IC50 in experiment [1] (setting [4]) was less than 1000 nM; in experiment [3], more than 1000 nM. In experiment [2], the Kd was less than 400 nM.

Take `C[C@@H](Nc1nc(Cl)nc2c1CN(C(=O)[C@@H]1CNC[C@@H]1C)C2)c1cc(N)cc(C(F)(F)F)c1` [Example 264]: the IC50 in experiment [1] (setting [4]) is more than 1000 nM; in experiment [3], less than 1000 nM. The dissociation constant (Kd) in experiment [2] is less than 400 nM.

As to `Cc1nc2c(c(N[C@H](C)c3cc(N)cc(C(F)(F)F)c3)n1)CN(S(=O)(=O)c1ccc(N)nc1)C2` [Example 36, (R)—N-(1-(3-amino-5-(trifluoromethyl)phenyl)ethyl)-6-((6-aminopyridin-3-yl)sulfonyl)-2-methyl-6,7-dihydro-5H-pyrrolo[3,4-d]pyrimidin-4-amine], the IC50 in experiment [1] (setting [4]) and in experiment [3] was more than 1000 nM throughout. Also, in experiment [2], the equilibrium dissociation constant (Kd) is more than 400 nM.

As for `C[C@@H](Nc1nc(Cl)nc2c1CN(C1CCOCC1)C2=O)c1cc(N)cc(C(F)(F)F)c1` [Example 30, 4-[[(1R)-1-[3-amino-5-(trifluoromethyl)phenyl]ethyl]amino]-2-chloro-6-tetrahydropyran-4-yl-5H-pyrrolo[3,4-d]pyrimidin-7-one], the IC50 in experiment [1] (setting [4]) was more than 1000 nM; in experiment [3], less than 1000 nM. Moreover, the Kd in experiment [2] was less than 400 nM.

`COC1(C(=O)N2Cc3nc(Cl)nc(N[C@H](C)c4cccc(C(F)F)c4F)c3C2)COC1` [Example 489]: the half-inhibitory concentration (IC50) in experiment [1] (setting [4]) and in experiment [3] was less than 1000 nM in each case. The Kd in experiment [2] is less than 400 nM.

On to `C[C@@H](Nc1nc(Cl)nc2c1CN(C(=O)OC1CCOCC1)C2)c1cc(N)cc(C(F)(F)F)c1` [Example 115, oxan-4-yl 4-{[(1R)-1-[3-amino-5-(trifluoromethyl)phenyl]ethyl]amino}-2-chloro-5H,6H,7H-pyrrolo[3,4-d]pyrimidine-6-carboxylate], for which the IC50 in experiment [1] (PC-9, 1 h) is less than 1000 nM; in experiment [3], more than 1000 nM. Moreover, the Kd in experiment [2] is less than 400 nM.

With `C[C@@H](Nc1nc(Cl)nc2c1CN(C(=O)C1CCNCC1(F)F)C2)c1cccc(C(F)F)c1F` (stereo partly drawn) [Example 311], the IC50 in experiment [1] (setting [4]) and in experiment [3] was less than 1000 nM each time. In experiment [2], the Kd was less than 400 nM.

`C[C@@H](Nc1nc(Cl)nc2c1CN(C(=O)CC1COCCN1C)C2)c1cccc(C(F)F)c1F` (stereo partly drawn) [Example 322]: the IC50 in experiment [1] (setting [4]) and in experiment [3] was less than 1000 nM each time. For the same compound, the Kd in experiment [2] was less than 400 nM.

`COC1(C(=O)N2Cc3nc(C(N)=O)nc(N[C@H](C)c4cccc(C(F)F)c4F)c3C2)CCOCC1` [Example 510, 4-{[(1R)-1-[3-(difluoromethyl)-2-fluorophenyl]ethyl]-amino}-6-(4-methoxyoxane-4-carbonyl)-5H,6H,7H-pyrrolo[3,4-d]pyrimidine-2-carboxamide]: the results for the IC50 in experiment [1] (setting [4]) and in experiment [3] were more than 1000 nM and less than 1000 nM, respectively. In experiment [2], the Kd was less than 400 nM.

`C[C@@H](Nc1nc(Cl)nc2c1CN(C(=O)N1CC3CNCC(C1)O3)C2)c1cccc(C(F)F)c1F` [Example 398]: the results for the IC50 in experiment [1] (setting [4]) and in experiment [3] were more than 1000 nM and less than 1000 nM, respectively. For the same compound, in experiment [2], the dissociation constant Kd is less than 400 nM.

Turning to `C[C@@H](Nc1nc(Cl)nc2c1CN(C(=O)N1CCN(C3COC3)CC1)C2)c1cccc(C(F)(F)CO)c1` [Example 357], the IC50 in experiment [1] (setting [4]) and in experiment [3] was less than 1000 nM in each case. Also, in experiment [2], the equilibrium dissociation constant (Kd) was less than 400 nM.

Turning to `C[C@@H](Nc1nc(Cl)nc2c1CN(C(=O)C1(C#N)CCN(C)CC1)C2)c1cccc(C(F)F)c1F` [Example 299], the IC50 in experiment [1] (setting [4]) and in experiment [3] was less than 1000 nM in each case. In experiment [2], the Kd is less than 400 nM.
